Laboratory results taken from ChEMBL document CHEMBL1201862, “PubChem BioAssay data set” (2004).
The source made the active and inactive calls.

Legend:
cells [1] = assay type: functional
cells [2] = assay type: functional, cell-based
cells [3] = assay type: functional, cell-based; remark: listed apart in the source
[4] = system: Streptococcus sp. 'group A'; assay: growth inhibition of control SK(-) GAS strain, dose response, counter-screen for streptokinase expression inhibitor project, luminescence, kanamycin, BacTiterGlo, confirmation (AID 1900); assay type: functional, organism-based
Streptococcus = assay: Group A Streptococcus viability loss, dose response, counter-screen for streptokinase expression inhibitor project, luminescence, BacTiterGlo (AID 1915); assay type: functional, organism-based;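 further: potency for reduction of bacterial viability or growth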
[5] = molecular target: T1, Corticotropin-releasing factor receptor 2/Corticotropin-releasing factor-binding protein (Homo sapiens, UniProt P24387+Q13324); assay: activators of CRF receptor 2 with binding protein – uHTS hits, confirmation (AID 602473); assay type: functional; conditions: read-out: EC50_Mean
T1 sequence (Q13324 whole entry): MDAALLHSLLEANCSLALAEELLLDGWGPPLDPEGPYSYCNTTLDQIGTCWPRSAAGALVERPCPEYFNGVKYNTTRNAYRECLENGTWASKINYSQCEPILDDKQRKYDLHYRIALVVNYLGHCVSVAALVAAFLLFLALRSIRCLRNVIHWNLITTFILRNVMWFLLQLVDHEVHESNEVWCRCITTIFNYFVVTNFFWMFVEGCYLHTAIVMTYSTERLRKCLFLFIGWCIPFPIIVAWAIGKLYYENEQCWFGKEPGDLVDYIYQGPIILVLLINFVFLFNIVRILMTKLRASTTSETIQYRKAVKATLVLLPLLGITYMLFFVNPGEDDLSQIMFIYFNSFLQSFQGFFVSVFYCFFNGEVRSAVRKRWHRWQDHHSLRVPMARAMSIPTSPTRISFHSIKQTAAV
T1 sequence (P24387 whole entry): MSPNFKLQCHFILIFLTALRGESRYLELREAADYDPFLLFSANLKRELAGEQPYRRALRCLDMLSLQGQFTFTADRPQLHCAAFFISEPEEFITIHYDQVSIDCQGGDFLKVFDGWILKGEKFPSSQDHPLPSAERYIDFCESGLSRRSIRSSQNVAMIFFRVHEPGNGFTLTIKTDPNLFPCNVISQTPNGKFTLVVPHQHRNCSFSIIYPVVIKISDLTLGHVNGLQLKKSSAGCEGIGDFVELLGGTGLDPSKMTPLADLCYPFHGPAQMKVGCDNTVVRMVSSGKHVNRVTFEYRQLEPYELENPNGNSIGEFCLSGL

[6] = inhibitors of SNCA 5'UTR-driven reporter translation, confirmation, H4 neuroglioma cells, luminescence (AID 1988); assay type: functional, cell-based
[7] = inhibitors of firefly luciferase expression or activity, dose response, H4 neuroglioma cells, luminescence (AID 1990); assay type: functional, cell-based
[8] = Luminescence Cell-Based Dose Response HTS to Identify Inhibitors of 5'UTR Stem-Loop Driven Prion Protein mRNA Translation in H4 Neuroglioblastoma Cells. [Related pubchem assays: 1827 (Project Summary), 1813 (Primary HTS)]; assay type: functional
H4 = assay: Luminescence Cell-Based Dose Response HTS to Identify Activators of 5'UTR Stem-Loop Driven Prion Protein mRNA Translation in H4 Neuroglioblastoma Cells. [Related pubchem assays: 1829 (Project Summary), 1814 (Primary HTS)]; assay type: functional; conditions: Homo sapiens
[9] = Luminescence Cell-Based Dose Response HTS to Identify Activators of Luciferase Translation or Activity in H4 […] Cells. [Related pubchem assays: 1829 (Project Summary), 1814 (Primary HTS)]; assay type: functional
Cytochrome P450 2C19 = Cytochrome P450 2C19 (Homo sapiens, UniProt P33261); assay: Cytochrome panel assay with activity outcomes. Panel member name: p450-cyp2c19 Compounds with AC50 equal or less than 10 uM are considered active; assay type: functional
Cytochrome P450 2C19, sequence (P33261 whole entry): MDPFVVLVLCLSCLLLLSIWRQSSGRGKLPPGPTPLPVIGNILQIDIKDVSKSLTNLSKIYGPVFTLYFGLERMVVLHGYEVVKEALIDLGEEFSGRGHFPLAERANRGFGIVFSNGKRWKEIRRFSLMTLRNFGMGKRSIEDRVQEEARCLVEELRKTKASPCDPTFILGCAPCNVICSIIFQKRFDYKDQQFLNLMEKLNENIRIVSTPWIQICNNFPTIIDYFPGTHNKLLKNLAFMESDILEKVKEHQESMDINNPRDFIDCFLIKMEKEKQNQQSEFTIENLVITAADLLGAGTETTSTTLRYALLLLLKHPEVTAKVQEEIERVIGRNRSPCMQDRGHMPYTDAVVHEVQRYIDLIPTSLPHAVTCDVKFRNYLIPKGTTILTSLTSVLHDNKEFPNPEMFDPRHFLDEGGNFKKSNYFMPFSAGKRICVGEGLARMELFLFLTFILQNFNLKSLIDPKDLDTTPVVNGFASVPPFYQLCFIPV

INS1 = assay: beta cell apoptosis inhibitors, cytokine rescue, dose response, luminescence, retest (AID 449756); assay type: functional, cell-based; conditions: Rattus norvegicus;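 further: cell death triggered by IL-1 beta plus TNF-alpha plus IFN-gamma mixture; protective hits raise ATP signal compared with cytokine alone wells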
[10] = inhibitors of intracellular T. cruzi replication, confirmation, NIH3T3 host cells, beta-gal luminescence (AID 2044); assay type: functional, cell-based;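 further: intracellular parasites grown in NIH/3T3 mouse fibroblasts as host cells; luminescent beta-galactosidase reporter signal from transgenic T. cruzi replicating inside host cells; inhibitors lower the luminescence signal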
[11] = cytotoxicity toward NIH3T3 fibroblasts, dose response, counter-screen, cell-based, ATP luminescence, mouse fibroblasts (AID 2010); assay type: functional;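 further: cells exposed to compound for about 90 hours before reading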

Row | SMILES | IC50 (cells [1]) | EC50 (cells [2]) | EC50 (cells [3]) | other results
1 | COC(=O)CCCC(=O)N1CCCC(C(=O)c2ccc(-c3ccccc3)cc2)C1 (configuration not stated) | > 50 µM (active) | – | – | –
2 | CC(=O)Nc1nc(C)c(-c2csc(Nc3ccccn3)n2)s1 | – | 5.87 µM (active) | > 350 µM (not active) | –
3 | COc1ccc(CC(=O)NN=C(S)NCC2CC2)cc1OC | – | > 350 µM (not active) | > 350 µM (not active) | –
4 | CCCN(Cc1nnc(-c2ccccc2Cl)o1)C(=O)c1cc([N+](=O)[O-])cc([N+](=O)[O-])c1 | 5.87 µM (active) | – | – | –
5 | CN1C(=O)/C(=C/c2ccccc2F)Sc2ccc(C(=O)N3CCCC3)cc21 | – | – | – | EC50 [4]: 1.06 µM (active); EC50 (Streptococcus): 2.66 µM (active)
6 | COc1ccc(C2C(C#N)=C(N)Oc3cc(O)ccc32)cc1C (configuration not stated) | – | – | – | EC50 [5]: > 53 µM (inactive)
7 | CCc1ccc(NC(=O)COc2ccc3c(c2)OCO3)cc1 | > 50 µM (active) | – | – | –
8 | O=C(COC(=O)c1ccc(Cl)s1)c1ccc[nH]1 | 5.77 µM (active) | – | – | –
9 | Cc1cc(=O)oc2cc(OCC(=O)N3CCN(c4ccc(F)cc4)CC3)ccc12 | – | > 350 µM (not active) | > 350 µM (not active) | –
10 | CCOc1ccccc1N1CCN(C(=S)NC(=O)C23CC4CC(CC(C4)C2)C3)CC1 | – | > 350 µM (not active) | > 350 µM (not active) | EC50 [6]: 17.3 µM (active); EC50 [7]: > 120 µM (not active); EC50 [8]: 24.5 µM (active)
11 | Cc1ccc(C(=O)Nc2nccs2)cc1 | 41.4 µM (active) | – | – | –
12 | O=C(c1ccccc1)c1cc2cc(Cl)ccc2[nH]1 | – | – | – | EC50 (H4): 13.9 µM (active); EC50 [9]: 94.6 µM (active)
13 | CS(=O)(=O)c1cccc(C(=O)N(CCc2ccccc2)Cc2cccs2)c1 | – | > 350 µM (not active) | > 350 µM (not active) | –
14 | CC(NC(=O)c1cc2c(s1)CS(=O)(=O)C2)c1ccccc1 (configuration not stated) | – | > 350 µM (not active) | > 350 µM (not active) | –
15 | Cc1nc2nc3c(cn2n1)C(=O)CC(c1ccccc1)C3 (configuration not stated) | – | – | > 350 µM (not active) | –
16 | c1ccc2[nH]c(NC3=NCCC3)nc2c1 | 12.2 µM (active) | – | – | AC50 (Cytochrome P450 2C19): inconclusive
17 | CCc1cccc(C)c1NC(=S)N1CCCCC1c1cccnc1 (configuration not stated) | – | – | – | EC50 [5]: 6.05 µM (active)
18 | C=CCN1C(c2cccc(C(F)(F)F)c2)=CS/C1=C(\C#N)c1nnc(N2CCOCC2)n1-c1ccccc1 | – | – | – | EC50 [5]: > 53 µM (inactive)
19 | CN(C)c1ccc(C=NN2C(=O)CSC2=S)c(Cl)c1 | – | – | – | EC50 [5]: > 53 µM (inactive)
20 | O=C(CNS(=O)(=O)c1ccc([N+](=O)[O-])cc1)N/N=C\c1ccc(O)cc1 | – | – | – | EC50 [5]: 7.12 µM (active)
21 | COc1ccccc1N(CC(=O)N/N=C/c1c(O)ccc2ccccc12)S(C)(=O)=O | – | – | 9.19 µM (active) | AC50 (INS1): 2.15 µM (active); EC50 [6]: 8.56 µM (active); EC50 [7]: 13.5 µM (active); EC50 [8]: 22.8 µM (active)
22 | C/C(Cn1nnc([N+](=O)[O-])n1)=N\NC(=O)c1ccncc1 | 0.3 µM (active) | – | – | EC50 [10]: 0.214 µM (active); EC50 [11]: > 30 µM (not active)
23 | Cc1ccc(/C=N/NC(=O)c2ccc(Br)o2)s1 | – | 37.1 µM (active) | > 350 µM (not active) | –
